Reference: US7985755B2, “2,4-diaminoquinazolines for spinal muscular atrophy” (Families of Spinal Muscular Atrophy, priority 2006, dated 2011)
Where two headings read alike, the source gives them in different places.

Columns and labels:
[1] = system: SMN2 promoter; assay: SMN2 promoter assay in NSC-34 cells (β-lactamase reporter); format: cell-based, mouse; conditions: read-out: Promoter Assay EC50
Excerpt: All compounds were screened using an in vitro based SMN2 promoter assay. We used NSC-34 cells, a hybrid cell line between mouse spinal cord cells and mouse neuroblastoma cells. NSC-34 cells harbor an expression plasmid containing a 3.4 kb promoter fragment of the SMN2 gene driving β-lactamase expression.
[…] […] CCF2-AM diffuses across the plasma membrane and is converted into an active β-lactamase substrate by cytoplasmic esterase. […] The fold induction is proportional to the extent of β-lactamase produced and in turn proportional to SMN2 promoter activation for a given compound relative to vehicle (DMSO) control. […] These values are used to rank activities of the compounds and derive structure activity relationship.

[2] = molecular target: T1, Human, recombinant dihydrofolate reductase (Homo sapiens, UniProt P00374); assay: Human DHFR assay; format: biochemical
T1 construct: purchased Sigma D6566
T1 sequence (P00374 1-187): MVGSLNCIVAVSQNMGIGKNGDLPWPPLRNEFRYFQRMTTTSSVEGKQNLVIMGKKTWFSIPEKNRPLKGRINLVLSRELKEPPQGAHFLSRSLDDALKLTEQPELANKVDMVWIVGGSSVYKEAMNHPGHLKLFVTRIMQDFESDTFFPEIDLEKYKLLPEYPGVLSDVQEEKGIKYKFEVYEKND
Description: The assay is an adaptation for 96-well plate format from Appleman et al. (Appleman, J R; Howell, E E; Kraut, J; Kuhl, M and Blakley, R L (1988) J. Biol. Chem. 263, 9187-9198). Human, recombinant dihydrofolate reductase (Sigma, D6566) was incubated along with test compounds ([…]) and NADPH (Sigma, N-7505) in 96-well plates. After a 10 min. pre-incubation at room temperature, dihydrofolic acid (Sigma, D7006) was added and the kinetic traces at 340 nm measured on a Spectra Max 190 plate reader at room temperature. Reaction rates were determined from the slopes of the linear portions of the progress curves. The final assay conditions were 0.014 units DHFR, 300 μM NADPH, 30 μM Dihydrofolic acid, 50 mM TRIS, pH 7.6, 100 mM NaCl and 1.25% DMSO. Each compound was measured in duplicates on every assay plate. Each assay plate contained 12 positive controls (DMSO only) and 12 negative controls (no dihydrofolic acid). All data was percent normalized with respect to controls and presented as percent inhibition. Inhibition data was analyzed using Prism and fit to a standard 4-parameter logistic equation to calculate IC50 values.

[3] = Table 1, SMN2 promoter driving β-lactamase, 12 point dose curve
[4] = Mus musculus, Table 1, SMN2 promoter driving β-lactamase, 12 point dose curve
[5] = Mus musculus, Table 2, SMN2 promoter driving β-lactamase
[6] = Table 3, SMN2 promoter driving β-lactamase
[7] = Mus musculus, Table 3, SMN2 promoter driving β-lactamase

Compound | IC50 ([2]; Table 1, read-out: hDHFR IC50) [µM] | EC50 [1, 4] [µM] | further results
COc1ccccc1CN1CCC(COc2cccc3nc(N)nc(N)c23)CC1 [Example-113] | > 100 |  | EC50 [1, 3]: < 1 µM
CN(C)c1cccc(C(=O)N2CCC(COc3cccc4nc(N)nc(N)c34)CC2)c1 [Example-115] | > 100 | < 1 | 
CN1CCC(COc2cccc3nc(N)nc(N)c23)CC1 [Example-117] | > 100 | < 1 | 
Nc1nc(N)c2c(OCC3CCN(Cc4cccnc4)CC3)cccc2n1 [Example-120] | > 100 |  | EC50 [1, 3]: < 1 µM
Nc1nc(N)c2c(OCC3CCN(CC4CCC4)CC3)cccc2n1 [Example-121] | > 100 | < 1 | 
Nc1nc(N)c2c(OCC3CCN(CC4CCCCO4)CC3)cccc2n1 (stereo not drawn) [Example-125] | > 100 | 1 to 5 | 
Nc1nc(N)c2c(OCC3CCN(C(=O)N4CCCC4)CC3)cccc2n1 [Example-126] | > 100 |  | EC50 [1, 3]: < 1 µM
Nc1nc(N)c2c(OCC3CCN(C(=O)N4CCOCC4)CC3)cccc2n1 [Example-127] | > 100 |  | EC50 [1, 3]: < 1 µM
Nc1nc(N)c2c(OCC3CCN(CC4CCCO4)CC3)cccc2n1 (stereo not drawn) [Example-128] | > 100 | 1 to 5 | 
CN(C)c1cccc(CN2CCC(COc3cccc4nc(N)nc(N)c34)CC2)c1 [Example-134] | 20 to 100 | < 1 | 
CC(C)CN1CCC(COc2cccc3nc(N)nc(N)c23)CC1 [Example-138] | > 100 | < 1 | 
CC(C)CCN1CCC(COc2cccc3nc(N)nc(N)c23)CC1 [Example-139] | > 100 | < 1 | 
Nc1nc(N)c2c(OCC3CCN(CC4CCCCC4)CC3)cccc2n1 [Example-141] | > 100 | < 1 | 
Nc1nc(N)c2c(OCC3CCN(Cc4c(Cl)cccc4Cl)CC3)cccc2n1 [Example-142] | > 100 | < 1 | 
Nc1nc(N)c2c(OCC3CCN(Cc4cc(F)ccc4F)CC3)cccc2n1 [Example-143] | 20 to 100 | < 1 | 
CCCCCCN1CCC(COc2cccc3nc(N)nc(N)c23)CC1 [Example-144] | > 100 | < 1 | 
Nc1nc(N)c2c(OCC3CCN(Cc4c(F)cccc4F)CC3)cccc2n1 [Example-147] | > 100 | < 1 | 
Nc1nc(N)c2c(OCC3CCN(CC4CCNCC4)CC3)cccc2n1 [Example-151] | > 100 | < 1 | 
Nc1nc(N)c2c(OC[C@H]3CC[C@H](Cc4cccc(Cl)c4)CC3)cccc2n1 [Example-153, 5-[4-(3-Chlorobenzyl)cyclohexylmethoxy]quinazoline-2,4-diamine] |  |  | EC50 [1, 5]: < 1 µM; IC50 ([2]; Table 2, read-out: hDHFR IC50): < 20 µM
Nc1nc(N)c2c(OCC3CCC(Cc4ccccc4F)CC3)cccc2n1 (stereo not drawn) [Example-154, 5-[4-(2-Fluorobenzyl)cyclohexylmethoxy]quinazoline-2,4-diamine] |  |  | EC50 [1, 5]: < 1 µM; IC50 ([2]; Table 2, read-out: hDHFR IC50): 20 to 100 µM
Cc1cccc(C)c1CN1CCC(COc2cccc3nc(N)nc(N)c23)CC1 [Example-158] |  |  | EC50 [1, 6]: < 1 µM; IC50 ([2]; Table 3, read-out: hDHFR IC50): > 100 µM
Nc1nc(N)c2c(OCC3CCN(CC(F)F)CC3)cccc2n1 [Example-159] |  |  | EC50 [1, 6]: < 1 µM; IC50 ([2]; Table 3, read-out: hDHFR IC50): > 100 µM
Nc1nc(N)c2c(OCC3CCN(Cc4c(F)cccc4C(F)(F)F)CC3)cccc2n1 [Example-160, 5-[1-(2-Fluoro-6-trifluoromethylbenzyl)piperidin-4-ylmethoxy]quinazoline-2,4-diamine] |  |  | EC50 [1, 7]: < 1 µM; IC50 ([2]; Table 3, read-out: hDHFR IC50): > 100 µM
Nc1nc(N)c2c(OCC3CCN(Cc4c(F)cccc4Cl)CC3)cccc2n1 [Example-161, 5-[1-(2-Chloro-6-fluorobenzyl)piperidin-4-ylmethoxy]quinazoline-2,4-diamine] |  |  | EC50 [1, 7]: < 1 µM; IC50 ([2]; Table 3, read-out: hDHFR IC50): > 100 µM
